Results on 3 compounds are retold here after patent publication US20040224984A1, “Methods of treating inflammations and infections with pyridinium salts” (priority 2003, published 2004).

One assay has as its system Candida albicans. In words: Vaginal candidiasis in female Charles River mice. Particulars: mice infected vaginally, 0.025 mL daily for 4 days from 6 hours post-infection, formula I 0.5% (w/v), chlortrimazole 1% (w/v). In kind it is in vivo. On the procedure:
Mice, infected vaginally with Candida albicans, were treated with 0.025 mL of the above treatments, commencing 6 hours post-infection, daily for 4 days.

Assay [1] has as its system Rodent. Nature of the assay: 4 Hour Carrageenan Pleuritis (rodent inflammation model). In kind it is in vivo. The settings on record: Prednisolone 0.02 mg/kg.
Assay [2] has as its system Rodent. In words: 4 Hour Allergic Pleuritis (rodent inflammation model). In kind it is in vivo. The settings on record: Prednisolone 0.004 mg/kg.
For assay [3], the system named is Rodent. In words: 4 Hour Allergic Synovitis (rodent inflammation model). In kind it is in vivo. The settings on record: Prednisolone 0.05 mg/kg.
In assay [4] the test system is roundworms, threadworms, and whipworms. Particulars: reported; U.S. Pat. No. 3,075,975 and 3,085,935; cited from earlier work.

For the compound `Clc1ccccc1C(c1ccccc1)(c1ccccc1)n1ccnc1` [Chlortrimazole], in the assay with Candida albicans (mice cleared/treated), the Cleared is 7/10. In the assay with Candida albicans (mice improved/treated), the Improved is reported as 2/10.
On to `C[C@]12C=CC(=O)C=C1CC[C@@H]1[C@@H]2[C@@H](O)C[C@@]2(C)[C@H]1CC[C@]2(O)C(=O)CO` [Prednisolone], for which the “% Inhibition Edema” value in the assay with Rodent [1] was 31%; in the assay on Rodent [2], 33%; in the assay with Rodent [3], 36%. Also, the figures for the “% Inhibition Neutrophils” value with Rodent [1], in the assay on Rodent [2] and in the assay on Rodent [3] were 21%, 25% and 37%, respectively.
Regarding `CC[n+]1c(/C=C/c2ccc(N3CCCC3)cc2)cccc1/C=C/c1ccc(N2CCCC2)cc1.[I-]` [Stilbazium iodide], the Anthelmintic efficacy entry in assay [4] is “effective against roundworms, threadworms, and whipworms”.
